SMILES strings stand for the structures.

What all share (assay type): cell-based
For one assay, the target named is T1, hMC1-R (Homo sapiens, UniProt Q01726).
T1 construct: expressed in transfected cells; host or cells: CHO-K1
The assay can be described thus: cyclic AMP bioassay, hMC1-R.

For the next assay, the target named is T2, hMC4-R (Homo sapiens, UniProt P32245).
T2 construct: expressed in transfected cells; host or cells: CHO-K1
Description: cyclic AMP bioassay, hMC4-R.

In another assay the target is T3, hMC3-R (Homo sapiens, UniProt P41968).
T3 construct: expressed in transfected cells; host or cells: CHO-K1
The assay can be described thus: cyclic AMP bioassay, hMC3-R.

A further assay has as its target T4, hMC5-R (Homo sapiens, UniProt P33032).
T4 construct: expressed in transfected cells; host or cells: CHO-K1
The assay can be described thus: cyclic AMP bioassay, hMC5-R.

T4 sequence (P33032 whole entry): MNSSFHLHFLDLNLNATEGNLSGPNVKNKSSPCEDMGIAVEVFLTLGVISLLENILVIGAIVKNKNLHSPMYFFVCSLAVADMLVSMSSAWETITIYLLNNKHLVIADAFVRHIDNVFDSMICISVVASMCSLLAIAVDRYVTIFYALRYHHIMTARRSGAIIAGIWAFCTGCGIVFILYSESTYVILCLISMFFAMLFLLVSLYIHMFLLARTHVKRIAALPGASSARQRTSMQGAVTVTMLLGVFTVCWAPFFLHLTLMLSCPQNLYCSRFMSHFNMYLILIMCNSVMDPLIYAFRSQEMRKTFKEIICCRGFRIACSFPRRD
T2 sequence (P32245 whole entry): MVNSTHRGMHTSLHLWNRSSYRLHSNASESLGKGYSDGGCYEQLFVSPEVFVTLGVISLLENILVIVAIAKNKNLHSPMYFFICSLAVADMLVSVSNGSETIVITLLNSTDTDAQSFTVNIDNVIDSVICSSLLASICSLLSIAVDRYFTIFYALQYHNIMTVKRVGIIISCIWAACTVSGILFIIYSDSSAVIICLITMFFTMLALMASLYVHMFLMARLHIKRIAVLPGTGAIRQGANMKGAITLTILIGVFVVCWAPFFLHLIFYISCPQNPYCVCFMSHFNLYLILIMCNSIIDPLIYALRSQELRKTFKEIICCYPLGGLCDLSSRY
T3 sequence (P41968 whole entry): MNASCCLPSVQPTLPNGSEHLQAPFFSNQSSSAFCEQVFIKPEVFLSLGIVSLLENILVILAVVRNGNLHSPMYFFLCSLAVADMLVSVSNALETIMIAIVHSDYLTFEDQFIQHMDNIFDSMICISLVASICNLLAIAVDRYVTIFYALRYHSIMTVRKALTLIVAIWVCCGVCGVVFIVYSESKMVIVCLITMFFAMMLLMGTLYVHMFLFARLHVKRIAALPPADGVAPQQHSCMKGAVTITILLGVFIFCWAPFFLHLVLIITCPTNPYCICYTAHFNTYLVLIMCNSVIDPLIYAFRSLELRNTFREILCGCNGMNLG
T1 sequence (Q01726 whole entry): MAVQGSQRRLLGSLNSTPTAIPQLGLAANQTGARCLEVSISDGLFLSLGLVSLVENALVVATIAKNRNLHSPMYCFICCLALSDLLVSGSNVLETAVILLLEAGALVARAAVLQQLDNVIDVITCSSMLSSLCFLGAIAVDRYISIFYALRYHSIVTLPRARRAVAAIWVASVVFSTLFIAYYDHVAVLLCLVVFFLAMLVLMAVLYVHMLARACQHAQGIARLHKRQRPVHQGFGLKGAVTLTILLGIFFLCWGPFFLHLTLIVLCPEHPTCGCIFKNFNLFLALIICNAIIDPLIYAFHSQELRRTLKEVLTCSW
Description for hMC3-R: (§1) Intracellular cyclic AMP (cAMP) levels were determined by an electrochemiluminescence (ECL) assay (Meso Scale Discovery®, Gaithersburg, Md.; referred to hereinafter as MSD). […] Transgenic CHO-K1 cells stably expressing hMC receptor subtypes 1, 3, 4 or 5 were dispensed at a density of approximately 7,000 cells/well in 384-well Multi-Arrays plates (MSD) containing integrated carbon electrodes and coated with anti-CAMP antibody. Increasing concentrations of the test compounds were added and the cells were incubated for approximately 40 minutes at approximately 37° C. […] At the end of the second incubation period read buffer (Tris-buffered solution containing an ECL co-reactant and Triton X-100 at ph 7.8) was added and the cAMP levels in the cell lysates were immediately determined by ECL detection with a Sector Imager 6000 Reader® (MSD). Data were analyzed using a computer-assisted non-linear regression analysis (XL fit; IDBS) and reported as either an EC50 value or a Kb value.
(§2) The Kb value reflects the potency of an antagonist and is determined by Schild analysis. In brief, concentration-response curves of an agonist are carried out in the presence of increasing concentrations of an antagonist. […] It is calculated by extrapolating the line on a Schild plot to zero on the y-axis.
Description for hMC4-R: as §1, §2
Description for hMC5-R: as §1, §2

As usually defined, the EC50 is the concentration that produces a half-maximal response. Low values mean an effect from little substance, high ones a need for much substance. Take `CCCC[C@H](NC(C)=O)C(=O)N[C@H]1CSSC[C@@H](C(=O)NCCOCCOCC(=O)NCCOCCOCC(=O)N[C@@H](Cc2ccc(O)cc2)C(=O)NCC(=O)N[C@@H](CCCNC(=N)N)C(=O)N[C@@H](CCCCN)C(=O)N[C@@H](CCCCN)C(=O)N[C@@H](CCCNC(=N)N)C(=O)N[C@@H](CCCNC(=N)N)C(=O)N[C@@H](CCC(N)=O)C(=O)N[C@@H](CCCNC(=N)N)C(=O)N[C@@H](CCCNC(=N)N)C(=O)N[C@@H](CCCNC(=N)N)C(N)=O)NC(=O)[C@H](Cc2c[nH]c3ccccc23)NC(=O)[C@H](CCCNC(=N)N)NC(=O)[C@@H](Cc2ccccc2)NC(=O)[C@H](Cc2c[nH]cn2)NC(=O)[C@@H](C)NC1=O`: the EC50 on hMC1-R worked out at 4.7 nM; at hMC4-R, 0.634 nM; on hMC3-R, 4.56 nM; at hMC5-R, 147 nM.
For `CCCC[C@H](NC(C)=O)C(=O)N[C@H]1CSSC[C@@H](C(=O)NCCC(=O)N[C@@H](Cc2ccc(O)cc2)C(=O)NCC(=O)N[C@@H](CCCNC(=N)N)C(=O)N[C@@H](CCCCN)C(=O)N[C@@H](CCCCN)C(=O)N[C@@H](CCCNC(=N)N)C(=O)N[C@@H](CCC(N)=O)C(=O)N[C@@H](CCCNC(=N)N)C(=O)N[C@@H](CCCNC(=N)N)C(=O)N[C@@H](CCCNC(=N)N)C(=O)N[C@@H](CCCNC(=N)N)C(N)=O)NC(=O)[C@H](Cc2c[nH]c3ccccc23)NC(=O)[C@H](CCCNC(=N)N)NC(=O)[C@@H](Cc2ccccc2)NC(=O)[C@H](Cc2c[nH]cn2)NC(=O)[C@@H](C)NC1=O` the same measures were 5.9 nM, 1.02 nM, 7.73 nM and 2890 nM.
For `CCCC[C@H](NC(C)=O)C(=O)N[C@H]1CSSC[C@@H](C(=O)NCCC(=O)NCC(=O)N[C@@H](CCCNC(=N)N)C(=O)N[C@@H](CCCNC(=N)N)C(=O)N[C@@H](CCCNC(=N)N)C(=O)N[C@@H](CCCNC(=N)N)C(=O)N[C@@H](CCCNC(=N)N)C(=O)N[C@@H](CCC(N)=O)C(=O)N[C@@H](CCCNC(=N)N)C(=O)N[C@@H](CCCNC(=N)N)C(=O)N[C@@H](CCCNC(=N)N)C(N)=O)NC(=O)[C@H](Cc2c[nH]c3ccccc23)NC(=O)[C@H](CCCNC(=N)N)NC(=O)[C@@H](Cc2ccccc2)NC(=O)[C@H](Cc2c[nH]cn2)NC(=O)[C@@H](C)NC1=O`, the EC50 stood at 0.481 nM on hMC1-R, 0.964 nM at hMC4-R, 7.32 nM at hMC3-R and 2010 nM at hMC5-R.
As to `CCCC[C@H](NC(C)=O)C(=O)N[C@H]1CSSC[C@@H](C(=O)NCCC(=O)N[C@@H](CCCNC(=N)N)C(=O)N[C@@H](CCCNC(=N)N)C(=O)N[C@@H](CCCNC(=N)N)C(=O)N[C@@H](CCCNC(=N)N)C(=O)N[C@@H](CCCNC(=N)N)C(=O)N[C@@H](CCC(N)=O)C(=O)N[C@@H](CCCNC(=N)N)C(=O)N[C@@H](CCCNC(=N)N)C(=O)N[C@@H](CCCNC(=N)N)C(N)=O)NC(=O)[C@H](Cc2c[nH]c3ccccc23)NC(=O)[C@H](CCCNC(=N)N)NC(=O)[C@@H](Cc2ccccc2)NC(=O)[C@H](Cc2c[nH]cn2)NC(=O)[C@@H](C)NC1=O`, the EC50 at hMC1-R is 7.15 nM; on hMC4-R, 1.25 nM; on hMC3-R, 9.37 nM; on hMC5-R, 1570 nM.
Consider `CC(=O)N[C@H]1CSSC[C@@H](C(=O)N2CCC[C@H]2C(=O)N2CCC[C@H]2C(=O)N[C@@H](CCCCN)C(=O)N[C@@H](CC(=O)O)C(=O)NCCC(=O)NCC(=O)N[C@@H](CCCNC(=N)N)C(=O)N[C@@H](CCCNC(=N)N)C(=O)N[C@@H](CCCCN)C(=O)N[C@@H](CCCNC(=N)N)C(=O)N[C@@H](CCCNC(=N)N)C(=O)N[C@@H](CCC(N)=O)C(=O)N[C@@H](CCCNC(=N)N)C(=O)N[C@@H](CCCNC(=N)N)C(=O)N[C@@H](CCCNC(=N)N)C(N)=O)NC(=O)[C@H](C)NC(=O)[C@H](Cc2cccc3ccccc23)NC(=O)[C@H](CCCNC(=N)N)NC(=O)[C@@H](Cc2ccc3ccccc3c2)NC(=O)[C@H](Cc2c[nH]cn2)NC(=O)[C@H](CCC(=O)O)NC1=O`, for which the concentration giving a half-maximal response (EC50) was 26.6 nM on hMC1-R and 351 nM on hMC5-R. The Kb amounted to 9.34 nM on hMC4-R and 101 nM on hMC3-R.

Source of the values: patent US20090232838A1, “Ligands of melanocortin receptors” (priority 2005, published 2009).
